Results reported in patent publication EP2657347A1, “Electrochemical competitive assay and use thereof” (Université Paris Diderot - Paris 7, priority 2012, dated 2013).

How the values were obtained:
L-Apt49 [1] = assay: Redox-mediated catalytic cyclic voltammetry titration with mirror-image aptamer; assay type: binding; conditions: nonlinear fit of eq 5; catalytic peak current, Tris buffer
Procedure: (§1) All experiments were performed in 5 mM Tris buffer (pH 7) containing 10 mM MgCl2 and 50 mM NaCl (Recognition Buffer, RBr). The L-Tym concentration is always 5 µM. For cyclic voltammetric experiments, 1 µM [Os(bpy)3]2+ with 5 µM 1-Tym in a droplet of 50 µL RBr was used. So, before each experiment, the droplet is shaking with a micropipette. This procedure is repeated until we obtain a reproducible and stable voltammogram. Mother solution of Fc-1-Tym was a […] solution in DMF. This product is conserved at 4°C and seal with parafilm. Before each experiment, this solution is diluted 10 times in stabilized DMF, such as 0.2 µL in 50 µL of RBr leads to 5 µM of Fc-1-Tym.
Cyclic voltammetry measurements were performed with an AUTOLAB PGSTAT 12 potentiostat/galvanostat controlled by computer, and the data were acquired using GPES 4.9007 software (EcoChemie, The Netherlands). Small self-contained electrochemical cells made of 3 screen-printed electrodes on a flat substrate were used for all experiments. […]
From the combination of eqs 3 and 5 and knowledge of the catalytic peak currents determined both in the absence of aptamer (ip^0) [formula] and at extrapolated infinite aptamer concentration (ip^(∞)), [formula] we can write eq 5 which allows to predict the normalized peak current response decreases as a function of aptamer and target concentrations. […]

D-Apt49 [2] = assay: Redox-mediated catalytic cyclic voltammetry titration with aptamer; assay type: binding; conditions: specificity / enantioselectivity test, Figure 2B
Procedure: as §1
(§2) Cyclic voltammetry measurements were performed with an AUTOLAB PGSTAT 12 potentiostat/galvanostat controlled by computer, and the data were acquired using GPES 4.9007 software (EcoChemie, The Netherlands). Small self-contained electrochemical cells made of 3 screen-printed electrodes on a flat substrate were used for all experiments. The electrodes were printed using a DEK model-65 screen-printer. Working electrodes were 4 mm diameter screen-printed carbon electrodes prepared using a commercial carbon ink (Electrodag PF-470 A) deposited on the top of an underlying Ag layer (Electrodag 418 SS). Counter electrode was obtained using an Ag ink (Electrodag 418 SS).
(§3) Before experiments, the screen-printed carbon electrodes were coated with bovine serum albumin (BSA) by immersing the electrodes in a 1 mg/mL BSA solution for 10 minutes at room temperature. The BSA-modified electrodes were next cycled between 0 V and 0.8 V at v = 0.05 V/s, until of the capacitive background current in cyclic voltammetry was stablized.
The 49-mer aptamer we have used (see here above) is a sequence similar to the one that was previously selected by Vianini et al and successfully applied to chromatographic- and fluorescence-based L-Tym assays. Since direct electrochemical oxidation of phenolic compounds generally leads to electrode passivation and thus to poorly reproducible anodic peak current in cyclic voltammetry (CV), the electrochemical detection of L-Tym was performed by redox-mediated catalytic oxidation of the phenolic function. For such a purpose, we have used the one-electron redox mediator couple [Os^III/II(bpy)3]^3+/2+ which, according to its relatively high standard potential (E^0=+0.58 V vs. Ag/AgCl), is capable to efficiently catalyze the oxidation of phenolic compounds. [drawing 51]
The linear dependence of the peak current with both the square root of scan rate, v, and L-Tym concentration, indicates conditions of total catalysis for which the catalytic peak current response, ip, can be expressed by eq 1. ip = 0.609nFSCT^0 sqrt(DT)sqrt(fv/RT) [formula] where n is the number of electron involved in the catalytic reaction, F the Faraday constant, S the electrode area, C^0T the bulk concentration of L-Tym, and DT the diffusion coefficient of L-Tym. After aptamer addition, the binding reaction (eq 2) is rapidly set at equilibrium. [drawing 53] with Kd the dissociation constant. On the basis of a classical law of action mass and mass balance (i.e., C^0T = CT + CRT, with CT and CRT the free and receptor-bound target concentrations), and assuming a 1:1 binding stoichiometry, the free (χƒ) mole fraction of target in the bulk solution can thus be estimated by eq 3. χf = (CT)/(CT^0) = 1-(Kd + CT^0 + CR^0 -sqrt(((Kd+CT^0+CR^0))^2 -4CT^0 CR^0))/(2CT^0) [formula]
Here, C^0R is the total concentration of the aptamer receptor added to the solution. Under the assumption of a slow interconversion of free and bound target on the time scale of CV experiments, the catalytic peak current can thus be expressed by a linear combination of the catalytic currents related to the free and bound target through eq 4. ip = 0.609nFSCT^0 sqrt(fv/RT)[χfsqrt(DT)+(1-χf)sqrt(DRT)] [formula] where DT and DRT are the diffusion coefficients of the free and receptor-bound target, respectively. […]

D-Apt49 [3] = assay: Homogeneous electrochemical competitive binding assay in Tris buffer
Procedure: as §1, §2, §3
The competitive assay can be described by the two equilibrated binding reactions 6a and 6b, in which Fc-L-Tym is L-tyrosinamide labeled by a redox-active ferrocene group. The ferrocenyl label was here incorporated on the ―OH position of the phenolic group (Scheme 1). Note that under this condition the catalytic oxidation of the phenolic residue is no more possible and only the ferrocene labeled molecule can be detected. [drawing 63] [drawing 64] with Kd = (CTCR)/CRT [formula] Kd^(*) = (CT^(*)CR)/CRT^(*) [formula] where CR is the concentration of free aptamer receptor. […] Ideally, the two binding constants should be as close as possible (Kd ≈ K^*d). The value of K^*d was determined by monitoring in CV the reversible response of 5 µM Fc-L-Tym solution as a function of increasing concentrations of D-Apt49.
The competitive binding assay was achieved from two separate solutions containing a starting mixture of 5 µM Fc- L-Tym and 3 µM or 10 µM D-Apt49, and to which an increasing amount of L-Tym was added. […]

D-Apt49 [4] = assay: Homogeneous electrochemical competitive binding assay in 20% fetal bovine serum
Procedure: • Figure 1: Electrochemically competitive assay of the invention. Left-hand column: before the addition of the sample: a first redox signal is measured. Right-hand column: after the addition of a sample containing the target to be detected or measured: a second redox signal is measured. (A) Homogeneous electrochemically competitive assay: the presence of the target disrupts the complex formed between the oligonucleotide ligand and the redox-labeled target. […] (B) Heterologous electrochemically competitive assay, wherein the oligonucleotide ligand is attached to a solid phase: the presence of the target disrupts the complex formed between the oligonucleotide ligand and the redox-labeled target, thereby inducing a better detection of the redox labeled-target. […] (C) Heterologous electrochemically competitive assay, wherein the oligonucleotide ligand is attached to the electrode: the presence of the target disrupts the complex formed between the oligonucleotide ligand and the redox-labeled target, thereby reducing the detection of the redox labeled-target. […] (f) CV of 1 µM [Os(bpy)3]^2+ alone. […] Error bars: standard deviations from 3 measurements. Plain lines: fits of eq 5 to the experimental data. • Figure 3: (A) CVs (v = 0.05 V s^-1) of 5 mM Tris buffer (pH 7.0) containing 50 mM NaCl, 10 mM Mg^2+, 5 µM Fc-L-Tym and (a) 0 µM, (b) 1 µM, (c) 2 µM, (d) 3 µM, (e) 4 µM (f) 5 µM (g) 7.5 µM (h) 10 µM (i) 12.5 µM and (j) 15 µM of D-Apt49. (B) Normalized anodic peak current response as a function of aptamer concentration. Each data is the average of 3 measurements. Error bars are standard deviations. Plain line: fit of eq 5 to the experimental data. • Figure 4: Competitive binding curves performed in (A) 5 mM Tris buffer (pH 7 + 50 mM NaCl + 10 mM MgCl2) or (B) 20% fetal bovine serum (simply diluted with a 4 mM MgCl2 aqueous solution) as a function of (●, ★, ▼, Δ) L-Tym or (○) D-Tym concentration. (*) Assay of 5 µM L-Tym in the presence of 5 mM D-Tym. The Fc-L-Tym concentration was always C^0T*= 5 µM, whereas the D-Apt49 concentrations were C^0R: (●) 3, (★,○,*) 10, (▼) 40 and (Δ) 100 µM.
The enantiospecificity of the assay was next characterized using the same methodology but for solutions containing the D-Tym enantiomer. […] To evaluate the enantiospecific performance of the aptamer, the assay of trace amount of L-Tym in the presence of a large excess of D-Tym was examined and, as reported in Figure 4A, it has been found possible to detect as low as 5 µM L-Tym in the presence of 5 mM D-Tym. This remarkable performance means that as low as 0.1 % of an enantiomeric impurity in a nonracemic mixture can be assayed in a very short analysis time (<1 min). This is competitive with conventional separation techniques, and one order of magnitude lower than the 1% currently attainable by NMR. Finally, the ability to perform an assay under realistic biological conditions was examined. For such purpose, homogenous electrochemical competitive binding assays of 5-fold diluted fetal bovin serum samples spiked with known amounts of […] were then performed (Figure 4B).

D-Apt49 [5] = assay: Cyclic voltammetry titration of ferrocene-labeled target with aptamer; assay type: binding; conditions: 5 µM Fc-L-Tym, increasing D-Apt49, Tris buffer pH 7.0; fit of eq 5; also used as predetermined value in competitive fits
Procedure: as §1
Cyclic voltammetry measurements were performed with an AUTOLAB PGSTAT 12 potentiostat/galvanostat controlled by computer, and the data were acquired using GPES 4.9007 software (EcoChemie, The Netherlands). […]
The competitive assay can be described by the two equilibrated binding reactions 6a and 6b, in which Fc-L-Tym is L-tyrosinamide labeled by a redox-active ferrocene group. […] Note that under this condition the catalytic oxidation of the phenolic residue is no more possible and only the ferrocene labeled molecule can be detected. […] The value of K^*d was determined by monitoring in CV the reversible response of 5 µM Fc-L-Tym solution as a function of increasing concentrations of D-Apt49. […]

L-Apt49 [6] = assay: Cyclic voltammetry of ferrocene-labeled target with mirror-image aptamer; assay type: binding; conditions: not shown

How did the Kd (L-Apt49 [1]) turn out when `NC(=O)[C@H](N)Cc1ccc(O)cc1` [D-Tym, d-tyrosinamide] was run?
Its Kd is 3.8 ± 0.7 µM.

What about the “catalytic current response upon the addition of D-Apta49” value (D-Apt49 [2]) of the same compound?
The value was “no significant catalytic current response decrease”.

And the “displacement of Fc-L-Tym from D-Apt49” value (D-Apt49 [3]; 0-100 µM concentration range, 10 µM D-Apt49, Tris buffer)?
Its value is “no displacement”.

What about the response change (D-Apt49 [3]; concentrations as high as few millimolar) of the same compound?
The response change was “without significant response change”.

For `NC(=O)[C@@H](N)Cc1ccc(O[c-]2cccc2)cc1.[Fe+2].c1cc[cH-]c1` [Fc-L-Tym, O-Ferrocenyltyrosynamide], which Kd (D-Apt49 [4]; 5-fold diluted fetal bovine serum, average of the fitted curves, read-out: K^*d (average value)) is on record?
The Kd was 75 µM.

And the Kd (D-Apt49 [4]; 20% fetal bovine serum, 5 µM Fc-L-Tym, 40 µM D-Apt49, read-out: K^*d)?
Its Kd is 75 µM.

What about the Kd (D-Apt49 [4]; 20% fetal bovine serum, 5 µM Fc-L-Tym, 100 µM D-Apt49, read-out: K^*d) of the same compound?
Its Kd is 75 µM.

What about the Kd (D-Apt49 [5]) of the same compound?
The Kd was 1.2 ± 0.4 µM.

And the “current change in the presence of L-Apt49” value (L-Apt49 [6])?
Its value is “absence of current change”.

How did the “catalytic current response upon the addition of D-Apta49” value (D-Apt49 [2]) turn out when `N[C@@H](Cc1ccc(O)cc1)C(=O)O` [L-tyrosine] was run?
Its value is “no significant catalytic current response decrease”.

`CC(=O)Nc1ccc(O)cc1` [paracetamol] was tested. Which “catalytic current response upon the addition of D-Apta49” value (D-Apt49 [2]) did it give?
Its value is “no significant catalytic current response decrease”.
